{"source": "patent US9068996B2", "about": "“Analyte detection method” (SPHERE MEDICAL LIMITED, priority 2010, dated 2015)", "origin": "cited, not measured here", "conditions": "for average blood propofol concentration required: patients", "note": "Where two headings read alike, the source gives them in different places."}
{"smiles": "CC(C)c1cccc(C(C)C)c1O", "note": "[propofol, 2,6-di-isopropylphenol]", "values": [{"measurement": "Blood propofol concentration at which 50% of patients (EC50) were awake", "setting": "after surgery, awake", "result": 1.07, "unit": "µg/mL"}, {"measurement": "Blood propofol concentration at which 50% of patients (EC50) were oriented", "setting": "after surgery, oriented", "result": 0.95, "unit": "µg/mL"}, {"measurement": "average blood propofol concentration required", "setting": "major surgery", "result": "4.05 ± 1.01", "unit": "µg/mL"}, {"measurement": "average blood propofol concentration required", "setting": "non-major surgery", "result": "2.97 ± 1.07", "unit": "µg/mL"}]}
